The values that follow come from patent US10780094B2, “Use of carbonic anhydrase inhibitors for treatment of neurological and psychiatric disorders” (New York University, priority 2016, dated 2020).

Structures are written as SMILES. Bounds are passed on as bounds.

Series [1] deals with SH-SY5Y cells. In words: Cellular ROS (CellROX, DCFDA). It counts as cell-based, human. The conditions noted are these: Aβ42 in the presence or absence of MTZ; 24 hours. The procedure: For the last 30 minutes, the cells were incubated in the experimental medium at 37° C. with 5 μM CellROX Deep Red (Life Technologies) and 1 μg/ml Hoechst Stain (Immunochemistry Technologies, Bloomington, Minn.), as described by the manufacturer, followed by washes. Fluorescence was measured using a FlexStation 3 Multi-Mode Microplate Reader (Molecular Devices, Sunnyvale, Calif.).
10.000 cells of either SH-SY5Y or D3 cells were plated on 96-wells plates. The day after, cells were treated with the peptides and/or the drugs for the established experimental times. CellROX reagent was then added, directly, to the growing media, at a final concentration of 5 μM. 10 μg/mL of Hoescht 333258 was also added to the medium containing the CellROX reagent, in order to dye cell nuclei. Cells were incubated with both CellROX and Hoescht 333258, at 37° C., for 30 min., just before the ending time-point of the treatment. After 30 min., the medium was removed and cells were washed once in PBS 1× at room temperature. […]
Cells were plated on 96-wells microplate fluorescence microtiter (ThermoFisher, Waltham, Mass., US), and treated with peptides and/or drugs on phenol red free medium, with no serum in the case of the SH-SY5Y cells and 1% serum on the D3. […] Fluorescence was measured using a FlexStation (Molecular devices, Sunnyvalem Calif., US).

For series [2], the system named is mitochondria isolated from ECs (D3 cells). As to the kind of experiment: Mitochondrial H2O2 production (Amplex Red) after Aβ challenge. The conditions noted are these: ATZ at lower concentrations than MTZ. Format: cell-based, human. The procedure: Cells were plated on 6-wells plates and treated with the peptides and/or drugs for the experimental times. Plates were centrifuged for 10 min at 1.000 RPM and washed twice with PBS 1×. After that, 500 μL of homogenization buffer (75 mM sucrose, 225 mM mannitol, 5 mM Tris-HCl pH=7.4, 1 mM PMSF and protease inhibitor cocktail) was added. Cells were scraped in this buffer, collected in glass tubes and grinded exactly 80 times with a pellet pestle, keeping everything always on ice. Cells were then centrifuged at 2.800 RPM for 5 min at 4° C. The supernatant was collected and centrifuged again at 2.800 RPM for 5 min at 4° C. The supernatant was again collected and centrifuged at 10.500 RPM for another 5 min at 4° C. After this, the supernatant was discarded and the pellet was re-suspended in 100 μL of homogenization buffer. The samples were centrifuged again at 10.500 RPM for 10 min at 4° C., the supernatant was discarded and the pellets (mitochondrial fractions) were re-suspended on 50 μL of homogenization buffer. […] After that, mitochondrial fractions containing equal amounts of mitochondrial proteins were placed on 96-wells microplate absorbance microtiter (ThermoFisher, Waltham, Mass., US) and the AmplexRed assay was ran, following the instructions provided by the manufacturer. Absorbance was measured by using a FlexStation (Molecular Devices, Sunnyvalem Calif., US).

For series [3] the following is noted: Wright et al., 2008; cited from earlier work.

Turning to `CC(=O)/N=c1/sc(S(N)(=O)=O)nn1C` [MTZ, methazolamide], the “levels of cellular ROS (CellROX)” value in series [1] is “did not significantly change”.

On to `CC(=O)Nc1nnc(S(N)(=O)=O)s1` [ATZ, acetazolamide], for which the “inhibition of H2O2 production, compared with MTZ” value in series [2] was “more dramatic effect on the inhibition of H2O2 production”. Besides, in series [3], the “well tolerated daily dose in humans” value is reported as at most 1000 mg.
